Activity and ED50 data for nine molecules are collected here from ChEMBL document CHEMBL1150734, “Marine soft corals of the genus Pseudopterogorgia: a resource for novel anti-inflammatory diterpenoids” (J Nat Prod, 1987).

Each structure is given as a SMILES string. Converted amounts (≈) assume the structure as drawn.

Data set [1] relates to Mus musculus. The data set is described as follows: Antiinflammatory activity in mouse assessed as reduction PMA-induced ear edema at 50 ug/ear administered relative to control. Format: functional. Set-up: scale not given: the % may be the effect or the level left. As to conditions: at 50 µg/ear.
A short description of data set [2]: Inhibition of tubulin polymerization.
Data set [3] can be described thus: Inhibition of cell division of fertilized sea urchin egg. The settings on record: echinoidea.
A short description of data set [4]: Inhibition of nuclear division of fertilized sea urchin egg. The settings on record: echinoidea.
The subject of data set [5] is Mus musculus. The data set is described as follows: Antiinflammatory activity in mouse assessed as reduction PMA-induced ear edema. Format: functional.
Data set [6] concerns Mus musculus. The data set is described as follows: Antiinflammatory activity in ip dosed mouse assessed as inhibition of writhing. Format: functional.
Data set [7] relates to Mus musculus. The data set is described as follows: Antiinflammatory activity in ip dosed mouse assessed as reduction PMA-induced ear edema. It is filed as functional.

For `CC(=O)O[C@H]1[C@H](O)[C@H](Oc2c(O)c(C)cc3c2[C@@H](C)CC[C@@H]3[C@@H](C)CCC=C(C)C)OC[C@H]1O`, in the data set with Mus musculus [1], the Activity is 75%.

`CC(=O)O[C@@H]1CO[C@@H](Oc2c(O)c(C)cc3c2[C@@H](C)CC[C@@H]3[C@@H](C)CCC=C(C)C)[C@@H](O)[C@@H]1O`: the Activity with Mus musculus [1] was found to be 75%.

For the molecule `C=C(C)[C@H]1C2=CC(C(=O)OC)=C(C[C@H](C(C)C)[C@H]3O[C@H]3C3=C[C@H]1OC3=O)O2` [PSEUDOPTEROLIDE], in data set [2], the ED50 worked out at 8 µg/mL (≈ 21.5 µM). The Activity in the data set on Mus musculus [1] is given as 83%; in data set [3] it was “Non-toxic”; in data set [4], “Non-toxic”.

As to `CC(C)=C[C@H]1C[C@H](C)[C@H]2CC[C@H](C)c3c(O[C@@H]4OC[C@@H](O)[C@H](O)[C@H]4O)c(O)c(C)c1c32` [PSEUDOPTEROSIN A], in the data set with Mus musculus [1], the Activity is recorded as 75%. Also, the ED50 in the data set on Mus musculus [5] worked out at 8.3 µg; with Mus musculus [6], 4 mg/kg; with Mus musculus [7], 10 mg/kg.

Regarding `CC(=O)O[C@H]1[C@H](Oc2c(O)c(C)c3c4c2[C@@H](C)CC[C@@H]4[C@@H](C)C[C@@H]3C=C(C)C)OC[C@@H](O)[C@@H]1O` [PSEUDOPTEROSIN B], in the data set with Mus musculus [1], the Activity was 75%. Moreover, the figures for the ED50 in the data set on Mus musculus [6] and in the data set with Mus musculus [7] were 4 mg/kg and 10 mg/kg, respectively.

As to `CC(=O)O[C@@H]1[C@@H](O)[C@H](Oc2c(O)c(C)c3c4c2[C@@H](C)CC[C@@H]4[C@@H](C)C[C@@H]3C=C(C)C)OC[C@H]1O` [PSEUDOPTEROSIN C], in the data set with Mus musculus [1], the Activity is listed as 75%. For the same molecule, the ED50 is 4 mg/kg with Mus musculus [6] and 10 mg/kg in the data set with Mus musculus [7].

Consider `CC(=O)O[C@@H]1CO[C@@H](Oc2c(O)c(C)c3c4c2[C@@H](C)CC[C@@H]4[C@@H](C)C[C@@H]3C=C(C)C)[C@H](O)[C@H]1O` [PSEUDOPTEROSIN D], for which the Activity in the data set on Mus musculus [1] was 75%. Also, the values for the ED50 with Mus musculus [6] and with Mus musculus [7] were 4 mg/kg and 10 mg/kg, respectively.

Regarding `CC(C)=CCC[C@H](C)[C@H]1CC[C@H](C)c2c1cc(C)c(O)c2O[C@@H]1OC[C@@H](O)[C@@H](O)[C@@H]1O` [SECO-PSEUDOPTEROSIN A], in the data set with Mus musculus [1], the Activity is 75%.

As for `CC(=O)O[C@@H]1[C@H](Oc2c(O)c(C)cc3c2[C@@H](C)CC[C@@H]3[C@@H](C)CCC=C(C)C)OC[C@@H](O)[C@H]1O` [SECO-PSEUDOPTEROSIN B], in the data set with Mus musculus [1], the Activity amounted to 75%.
